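The concentration for 50% growth inhibition is given as GI50. TGI is the concentration that stops growth completely.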
Assays:
Experiment in all cases: NCI anticancer screen, dose series, 384-well format
[1] = tested on: SF-268 CNS
[2] = tested on: HCT-116 colon
[3] = tested on: MDA-MB-435 melanoma
[4] = tested on: TK-10 renal
[5] = tested on: HCC-2998 colon
[6] = tested on: U251 glioblastoma
[7] = tested on: NCI/ADR-RES ovarian
[8] = tested on: SK-MEL-28 melanoma
[9] = tested on: NCI-H322M lung
[10] = tested on: SK-OV-3 ovarian
[11] = tested on: MOLT-4 leukemia
[12] = tested on: SF-295 CNS
[13] = tested on: MDA-MB-231 breast
[14] = tested on: T-47D breast
[15] = tested on: NCI-H226 lung
[16] = tested on: 786-0 renal
[17] = tested on: A498 renal
[18] = tested on: SK-MEL-2 melanoma
[19] = tested on: SR leukemia
[20] = tested on: RPMI-8226 leukemia
[21] = tested on: MALME-3M melanoma
[22] = tested on: UO-31 renal
[23] = tested on: A549 NSCLC
[24] = tested on: CAKI-1 renal
[25] = tested on: HOP-92 NSCLC
[26] = tested on: IGROV1 ovarian
[27] = tested on: SK-MEL-5 melanoma
[28] = tested on: UACC-257 melanoma
[29] = tested on: OVCAR-3 ovarian
[30] = tested on: MCF7 breast
[31] = tested on: SN12C renal
[32] = tested on: M14 melanoma
[33] = tested on: CCRF-CEM leukemia
[34] = tested on: K-562 leukemia
[35] = tested on: RXF 393 renal
[36] = tested on: NCI-H23 lung
[37] = tested on: SNB-19 CNS
[38] = tested on: BT-549 breast
[39] = tested on: MDA-MB-468 breast
[40] = tested on: SW-620 colon
[41] = tested on: HOP-62 NSCLC
[42] = tested on: NCI-H460 NSCLC
[43] = tested on: HL-60(TB) leukemia
[44] = tested on: OVCAR-5 ovarian
[45] = tested on: OVCAR-4 ovarian
[46] = tested on: SF-539 CNS
[47] = tested on: COLO 205 colon
[48] = tested on: HCT-15 colon
[49] = tested on: ACHN renal
[50] = tested on: LOX IMVI melanoma
[51] = tested on: OVCAR-8 ovarian
[52] = tested on: NCI-H522 lung
[53] = tested on: DU-145 prostate

C=C1C[C@@H]2CC[C@@]34C[C@H]5O[C@H]6[C@@H](O3)[C@H]3O[C@H](CC[C@@H]3O[C@H]6[C@@H]5O4)CC(=O)C[C@@H]3[C@@H](OC)[C@@H](C[C@H](O)CN)O[C@H]3C[C@H]3O[C@@H](CC[C@@H]1O2)C[C@@H](C)C3=C
GI50 [1]: < 10 nM
TGI [1]: 40 nM
GI50 [2]: < 10 nM
TGI [2]: 219 nM
GI50 [3]: < 10 nM
TGI [3]: < 10 nM
GI50 [4]: 52.8 nM
TGI [4]: > 100000 nM
GI50 [5]: < 10 nM
TGI [5]: < 10 nM
GI50 [6]: < 10 nM
TGI [6]: 14.1 nM
GI50 [7]: 1900 nM
TGI [7]: 5950 nM
GI50 [8]: < 10 nM
TGI [8]: > 100000 nM
GI50 [9]: < 10 nM
TGI [9]: > 100000 nM
GI50 [10]: < 10 nM
TGI [10]: 84.9 nM
GI50 [11]: < 10 nM
TGI [11]: < 10 nM
GI50 [12]: 22.9 nM
TGI [12]: 246 nM
GI50 [13]: < 10 nM
TGI [13]: 165 nM
GI50 [14]: < 10 nM
TGI [14]: > 100000 nM
GI50 [15]: < 10 nM
TGI [15]: 206 nM
GI50 [16]: < 10 nM
TGI [16]: 389 nM
GI50 [17]: < 10 nM
TGI [17]: 1100 nM
GI50 [18]: < 10 nM
TGI [18]: < 10 nM
GI50 [19]: < 10 nM
TGI [19]: < 10 nM
GI50 [20]: < 10 nM
TGI [20]: < 10 nM
GI50 [21]: < 10 nM
TGI [21]: > 100000 nM
GI50 [22]: 225 nM
TGI [22]: > 100000 nM
GI50 [23]: < 10 nM
TGI [23]: 186 nM
GI50 [24]: < 10 nM
TGI [24]: > 100000 nM
GI50 [25]: < 10 nM
TGI [25]: 52.8 nM
GI50 [26]: < 10 nM
TGI [26]: > 100000 nM
GI50 [27]: < 10 nM
TGI [27]: < 10 nM
GI50 [28]: < 10 nM
TGI [28]: 85300 nM
GI50 [29]: < 10 nM
TGI [29]: < 10 nM
GI50 [30]: < 10 nM
TGI [30]: 596 nM
GI50 [31]: < 10 nM
TGI [31]: > 100000 nM
GI50 [32]: < 10 nM
TGI [32]: 2720 nM
GI50 [33]: < 10 nM
TGI [33]: < 10 nM
GI50 [34]: < 10 nM
TGI [34]: 12.9 nM
GI50 [35]: < 10 nM
TGI [35]: < 10 nM
GI50 [36]: < 10 nM
TGI [36]: < 10 nM
GI50 [37]: < 10 nM
TGI [37]: 41.2 nM
GI50 [38]: < 10 nM
TGI [38]: < 10 nM
GI50 [39]: < 10 nM
TGI [39]: < 10 nM
GI50 [40]: < 10 nM
TGI [40]: > 100000 nM
GI50 [41]: < 10 nM
TGI [41]: 3340 nM
GI50 [42]: < 10 nM
TGI [42]: < 10 nM
GI50 [43]: < 10 nM
TGI [43]: < 10 nM
GI50 [44]: < 10 nM
TGI [44]: > 100000 nM
GI50 [45]: < 10 nM
TGI [45]: 974 nM
GI50 [46]: < 10 nM
TGI [46]: < 10 nM
GI50 [47]: < 10 nM
TGI [47]: 16.6 nM
GI50 [48]: 69 nM
TGI [48]: 3500 nM
GI50 [49]: 73.3 nM
TGI [49]: > 100000 nM
GI50 [50]: < 10 nM
TGI [50]: 43.3 nM
GI50 [51]: < 10 nM
TGI [51]: 27.6 nM
GI50 [52]: < 10 nM
TGI [52]: < 10 nM
GI50 [53]: < 10 nM
TGI [53]: < 10 nM

From PubChem BioAssay (NCI)
